Assay results: PubChem BioAssay (NCI)
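Abbreviation: GI50, concentration required for 50% inhibition of growth. Definition used: TGI = concentration required for complete inhibition of growth.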

How the values were obtained:
Assay in all cases: NCI anticancer screen, dose series, 384-well format
SF-268 CNS = system: SF-268 CNS
SK-OV-3 ovarian = system: SK-OV-3 ovarian
SF-539 CNS = system: SF-539 CNS
RPMI-8226 leukemia = system: RPMI-8226 leukemia
786-0 renal = system: 786-0 renal
IGROV1 ovarian = system: IGROV1 ovarian
HS 578T breast = system: HS 578T breast
CCRF-CEM leukemia = system: CCRF-CEM leukemia
SK-MEL-5 melanoma = system: SK-MEL-5 melanoma
SK-MEL-28 melanoma = system: SK-MEL-28 melanoma
SNB-75 CNS = system: SNB-75 CNS
A498 renal = system: A498 renal
OVCAR-4 ovarian = system: OVCAR-4 ovarian
HCT-15 colon = system: HCT-15 colon
MALME-3M melanoma = system: MALME-3M melanoma
T-47D breast = system: T-47D breast
HOP-62 NSCLC = system: HOP-62 NSCLC
EKVX NSCLC = system: EKVX NSCLC
KM12 colon = system: KM12 colon
SW-620 colon = system: SW-620 colon
NCI-H322M lung = system: NCI-H322M lung
SR leukemia = system: SR leukemia
SN12C renal = system: SN12C renal
UACC-257 melanoma = system: UACC-257 melanoma
NCI-H226 lung = system: NCI-H226 lung
NCI/ADR-RES ovarian = system: NCI/ADR-RES ovarian
HOP-92 NSCLC = system: HOP-92 NSCLC
PC-3 prostate = system: PC-3 prostate
NCI-H522 lung = system: NCI-H522 lung

COc1cc2ncnc3c2cc1OCCCCCN(C)Cc1ccc(Br)cc1N3 was tested, and the GI50 (SF-268 CNS) was greater than 100 µM, the TGI (SF-268 CNS) was greater than 100 µM and the GI50 (SK-OV-3 ovarian) was 0.643 µM. For the same compound, the TGI (SK-OV-3 ovarian) was 5.34 µM, the GI50 (SF-539 CNS) was greater than 100 µM and the TGI (SF-539 CNS) was greater than 100 µM. It also gave a GI50 (RPMI-8226 leukemia) of 2.58 µM, a TGI (RPMI-8226 leukemia) greater than 20.6 µM and a GI50 (786-0 renal) of 3.92 µM. The TGI (786-0 renal) was greater than 100 µM, the GI50 (IGROV1 ovarian) was 0.419 µM and the TGI (IGROV1 ovarian) was 2.85 µM. It also gave a GI50 (HS 578T breast) of 1.84 µM, a TGI (HS 578T breast) greater than 100 µM and a GI50 (CCRF-CEM leukemia) of 4 µM. For the same compound, the TGI (CCRF-CEM leukemia) was greater than 100 µM, the GI50 (SK-MEL-5 melanoma) was 3.32 µM and the TGI (SK-MEL-5 melanoma) was greater than 100 µM. For the same compound, the GI50 (SK-MEL-28 melanoma) was greater than 27.3 µM, the TGI (SK-MEL-28 melanoma) was greater than 100 µM and the GI50 (SNB-75 CNS) was 4.58 µM. It also gave a TGI (SNB-75 CNS) greater than 100 µM, a GI50 (A498 renal) of 0.383 µM and a TGI (A498 renal) greater than 100 µM. It also gave a GI50 (OVCAR-4 ovarian) of 2.39 µM, a TGI (OVCAR-4 ovarian) greater than 100 µM and a GI50 (HCT-15 colon) of 2.86 µM. For the same compound, the TGI (HCT-15 colon) was greater than 100 µM, the GI50 (MALME-3M melanoma) was 3.33 µM and the TGI (MALME-3M melanoma) was greater than 100 µM. It also gave a GI50 (T-47D breast) of 0.798 µM, a TGI (T-47D breast) greater than 20.7 µM and a GI50 (HOP-62 NSCLC) of 4.74 µM. For the same compound, the TGI (HOP-62 NSCLC) was greater than 100 µM, the GI50 (EKVX NSCLC) was 0.612 µM and the TGI (EKVX NSCLC) was greater than 100 µM. The GI50 (KM12 colon) was 7.47 µM, the TGI (KM12 colon) was greater than 100 µM and the GI50 (SW-620 colon) was 6.27 µM. For the same compound, the TGI (SW-620 colon) was greater than 100 µM, the GI50 (NCI-H322M lung) was 0.191 µM and the TGI (NCI-H322M lung) was 1.46 µM. For the same compound, the GI50 (SR leukemia) was 1.72 µM, the TGI (SR leukemia) was 5.17 µM and the GI50 (SN12C renal) was 1.1 µM. It also gave a TGI (SN12C renal) greater than 100 µM, a GI50 (UACC-257 melanoma) greater than 100 µM and a TGI (UACC-257 melanoma) greater than 100 µM. For the same compound, the GI50 (NCI-H226 lung) was 5.87 µM, the TGI (NCI-H226 lung) was greater than 100 µM and the GI50 (NCI/ADR-RES ovarian) was 3.03 µM. It also gave a TGI (NCI/ADR-RES ovarian) greater than 100 µM, a GI50 (HOP-92 NSCLC) of 3.32 µM and a TGI (HOP-92 NSCLC) greater than 100 µM. For the same compound, the GI50 (PC-3 prostate) was 4.02 µM, the TGI (PC-3 prostate) was greater than 100 µM and the GI50 (NCI-H522 lung) was 0.287 µM.
